The values that follow come from US20260335398A1, “METHODS FOR TREATING PANCREATIC CANCER WITH A COMBINATION OF DES-METHYL PATEAMINE A AND A CLASS I HDAC INHIBITOR” (Baylor University, priority 2023, published 2026).

The test system of series [1] is c-MYC. The experiment in a line: Immunoblot of c-MYC protein levels in PDAC cell lines treated with DMPatA and DMDAPatA (FIG. 6B). Conditions: Capan-1, PANC-1, AsPC-1, MIA PaCa-2; 24 and 48 hours; DMPatA 10 and 20 nM, DMDAPatA 40 nM. It is filed as cell-based. The protocol:
FIG. 6B compares immunoblots of c-MYC protein levels from whole cell extracts of various PDAC cell lines (Capan-1, PANC-t, AsPC-1, MIA PaCa-2) treated with DMPatA (10 nM and 20 nM) and DMDPatA ([…]) (40 nM). Treatment was for 24 and 48 hours.
Western blotting was carried out as previously described (Luchenko V L, Litman T, Chakraborty A R, et al. 65. Membranes were probed with primary antibodies: Phospho-Histone H2A.X (Ser139) (1:1000, Millipore Sigma #05-636), GAPDH (1:10000, Abcam #ab8245), c-Myc (1:1000, Abcam #ab32072), β-Actin (1:1000, Cell Signaling Technology (CST), #8457), Phospho-RPA32/RPA2 (Ser33) (1:1000, Cell Signaling Technology #10148), Phospho-Chk1 (Ser345) (1:1000, CST #2341), and secondary antibodies IRDye® 680RD Goat anti-Mouse and IRDye® 800CW Goat anti-Rabbit (both from LI-COR Biosciences). Signal quantification was performed using the Odyssey CLx imaging system (LI-COR Biosciences), capturing various exposures within the linear range with ImageStudio software V3.1 (LI-COR Biosciences).

Series [2] relates to MIA PaCa-2 and KLM cells. Briefly: Cell proliferation with zotatifin on MIA PaCa-2 and KLM cells. The series is classed as cell-based. The procedure:
(§1) Previous studies have reported that inhibitors of translation initiation prevent cell proliferation and reduce levels of critical oncoproteins such as MYC and cyclinD1. The effects of DMPatA, a novel inhibitor of eIF4A helicase, was evaluated on four PDAC cell lines. All cells were sensitive to treatment with IC50s ranging from 2.8 to 10 nM (FIG. 6A). […] The efficacy of another eIF4Ai, zotatifin (eFT226), was evaluated on MIA PaCa-2 and KLM cells.
(§2) Cell viability was determined using CellTiter-Glo® reagent (Promega, #G7570) following the manufacturer's instructions. Cells were seeded at […] in white 96-well plates and grown overnight. They were then treated and incubated at 37 °C with 5% CO2. After incubation, assay reagent was added, and luminescent signals were quantified using a microplate reader (PHERAstar® FS, BMG LABTECH, Ortenberg, Germany). Caspase-Glo 3/7 assay (Promega, #G8091) was also employed following the manufacturer's instructions to measure apoptosis.

Series [3] concerns PDAC cell lines (Capan-1, PANC-1, AsPC-1, MIA PaCa-2). The experiment in a line: Cytotoxicity/cell viability (CellTiter-Glo) of DMPatA on PDAC cell lines, 48 h (FIG. 6A). As to conditions: four PDAC cell lines (Capan-1, PANC-1, AsPC-1, MIA PaCa-2). It is filed as cell-based. The procedure: FIG. 6A compares cytotoxicity graphs of the effect (viability) of DMPatA on various PDAC cell lines (Capan-1, PANC-1, AsPC-1, MIA PaCa-2) following 48 hours of treatment.
as §1, §2

Series [4] is described as follows: Body weight of xenograft mice (FIG. 2B). As to conditions: IP; romidepsin 0.75 mg/kg, DMPatA 0.075 mg/kg. It is filed as in vivo, athymic nude mice. The text has this:
FIGS. 2A and 2B illustrate the results of a MIA PaCa-2 xenograft model of PDAC in male athymic nude mice. FIG. 2A compares tumor growth (mm^3) in mice treated with the indicated concentrations of combination, romidepsin and DMPatA using IP route and vehicles described in the materials and methods section below. FIG. 2B compares body weight (g) of mice treated with the combination and single agents following treatment. FIGS. 2C and 2D compare quantification of H3K9ac and c-MYC antibodies. Frozen sections from MIA PaCa-2 xenograft tumor tissues were subjected to immunohistochemical analysis using antibodies against H3K9ac, and c-MYC. Fluorescence images were captured using fluorescent microscopy and the fluorescent signal from H3K9ac and c-MYC antibodies were quantified. To quantify fluorescence intensity at least 500 cells per condition were measured for each antibody at 40× magnification. The median of the signal intensity is shown. Statistical significance was determined by one-way ANOVA using Tukey multiple comparisons test, ****p value<0.0001.
Animal studies were performed according to Institutional Animal Care and Use Committee (IACUC) protocol number AC-AABD2601. Following the establishment of initial dose levels for individual drugs, efficacy of the combination and single agents in a MIA PaCa-2 xenograft model was assessed at a tolerable dose and schedule. […]

Series [5] relates to MIA PaCa-2 and KLM cells. Briefly: RNA-seq gene expression analysis (FIG. 9A). It is filed as cell-based. Conditions: total 18 h (6 h romidepsin 15 nM + 12 h with/without DMPatA 2 nM); |log2FC|≥1, adjusted p<0.05. The protocol:
Plots show a significant increase in the overall gene expression in the cells treated with the combination. Cells treated for a total of 18 h (i.e., 6-hour romidepsin followed by 12-hour incubation with 2 nM DMPatA (combo) or without (Romi alone)).
To gain further insight into the effects of the combination treatment gene expression was profiled in MIA PaCa-2 and KLM cells treated with vehicle, the single agents, or the combination for a total of 18 h (i.e., 6-hour romidepsin treatment followed by 12-hour washout with 2 nM DMPatA or without), probing whether alterations observed following combination treatment could be explained by changes in gene expression.
Total RNA was extracted using RNeasy mini kit (Qiagen) from cells collected after 18 hours (6 hours romidepsin (15 nM)+12 hours washout with or without DMPatA (2 nM)) incubation with or without drugs. RNA quantitation and quality were assessed by the Agilent Bioanalyzer 2100 at the Molecular Pathology Shared Resource of the Herbert Irving Comprehensive Cancer Center at Columbia University (mBank). RNA library preparation and sequencing was performed at Columbia University's Sulzberger Genome Center. Briefly, poly-A pull-down was used to enrich mRNAs from total RNA samples, followed by library construction using Illumina TruSeq chemistry. Libraries were then sequenced using Illumina NovaSeq 6000. For the DESeq2 (v 1.40.2) analysis the data were imported with tximport in DESeq2 and a dds object was generated. Variance stabilizing transformation was used on the object and the output was used for the heatmap and PCA plots. Abundance of transcripts was estimated by pseudoalignment using kallisto, and downstream analysis was performed using R (v4.3.1) and the indicated packages. […] Differentially expressed genes were determined using linear regression method (limma v3.56.2), and genes with |log 2FC|≥1 and adjusted p-value <0.05 were plotted accordingly on volcano plots and heatmap (ggplot2 v3.5.0 and ComplexHeatmap v2.16.0). […]

`CC(/C=C/C(C)=C/[C@@H]1Cc2nc(cs2)CCCCC(=O)O[C@@H](C)C/C(C)=C/C=C\C(=O)O1)=C\CN(C)C` [DMDAPatA, des-methyl des-amino pateamine A]: in series [1], the c-MYC protein levels result is listed as “reduced c-MYC levels in all cell lines”.

For `COc1cc2c(c(OC)n1)[C@]1(O)[C@H](O)[C@H](CN(C)C)[C@@H](c3ccccc3)[C@]1(c1ccc(C#N)cc1)O2` [zotatifin], the “potency in suppressing proliferation, DMPatA vs zotatifin” value in series [2] is reported as “reduced potency, compared to DMPatA”. As to `CC(/C=C/C(C)=C/[C@@H]1Cc2nc(cs2)CC[C@@H](N)CC(=O)O[C@@H](C)C/C(C)=C/C=C\C(=O)O1)=C\CN(C)C` [DMPatA, des-methyl pateamine A], the IC50 in series [3] was in the range of 2.8 to 10 nM. Further, the “body weight vs vehicle” value in series [4] is on record as “neither the single agent nor the combination treatments had a significant impact on weight”. The “number of differentially expressed genes (DEGs)” value in series [5] was 1443 DEGs.
